Results: ChEMBL document CHEMBL1250462, “Affinity of aporphines for the human 5-HT2A receptor: insights from homology modeling and molecular docking studies” (Bioorg Med Chem, 2010)

Target: 5-hydroxytryptamine receptor 2A (Homo sapiens) (UniProt P28223)
Sequence (P28223 whole entry): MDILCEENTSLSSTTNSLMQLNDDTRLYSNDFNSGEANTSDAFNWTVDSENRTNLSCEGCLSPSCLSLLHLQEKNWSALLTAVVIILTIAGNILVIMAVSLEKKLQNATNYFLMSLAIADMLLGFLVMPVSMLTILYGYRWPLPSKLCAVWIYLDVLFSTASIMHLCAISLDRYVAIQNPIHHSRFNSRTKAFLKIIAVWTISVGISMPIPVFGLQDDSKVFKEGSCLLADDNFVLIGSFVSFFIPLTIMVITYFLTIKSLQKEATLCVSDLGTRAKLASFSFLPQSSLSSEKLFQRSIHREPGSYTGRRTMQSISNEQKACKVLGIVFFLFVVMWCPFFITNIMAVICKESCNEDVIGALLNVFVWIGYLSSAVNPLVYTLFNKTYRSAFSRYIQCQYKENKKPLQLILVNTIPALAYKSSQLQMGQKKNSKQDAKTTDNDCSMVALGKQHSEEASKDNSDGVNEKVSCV

Ke	SMILES
> 10 µM	COc1cc2c3c(c1OC)-c1cc4c(cc1CC3N(S(C)(=O)=O)CC2)OCO4 (stereo not drawn)
> 10 µM	COc1cc2c3c(c1OC)-c1cc4c(cc1CC3N(C(C)=O)CC2)OCO4 (stereo not drawn)
4.6 µM	COc1cc2c3c(c1OCc1ccccc1)-c1cc4c(cc1CC3N(C)CC2)OCO4 (stereo not drawn)
